How the values were obtained:
[1] = molecular target: T1, Neuropeptide Y receptor type 1 (Homo sapiens, UniProt P25929); type: cell membranes, Membrane; settings: sk-n-mc; also: in other assays of this panel Not Active means under 50% inhibition at 10 µM
T1 sequence (P25929 whole entry): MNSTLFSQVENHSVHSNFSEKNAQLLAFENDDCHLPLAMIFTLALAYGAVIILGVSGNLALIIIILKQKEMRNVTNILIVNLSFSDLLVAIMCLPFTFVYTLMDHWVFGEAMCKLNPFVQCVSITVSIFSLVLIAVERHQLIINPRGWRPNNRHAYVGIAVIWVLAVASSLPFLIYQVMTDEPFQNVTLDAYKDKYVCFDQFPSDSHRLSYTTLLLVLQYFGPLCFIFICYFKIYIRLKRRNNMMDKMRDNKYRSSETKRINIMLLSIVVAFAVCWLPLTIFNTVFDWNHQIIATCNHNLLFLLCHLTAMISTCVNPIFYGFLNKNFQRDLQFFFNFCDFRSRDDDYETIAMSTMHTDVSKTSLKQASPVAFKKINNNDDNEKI

[2] = molecular target: Mitogen-activated protein kinase 14 (Homo sapiens, UniProt Q16539); parameters: species or system Escherichia coli;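 also: inhibition of p38alpha enzyme activity in a biochemical kinase assay, with myelin basic protein serving as substrate; in other assays of this panel Not Active means under 50% inhibition at 10 µM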
Sequence of Mitogen-activated protein kinase 14 (Q16539 whole entry): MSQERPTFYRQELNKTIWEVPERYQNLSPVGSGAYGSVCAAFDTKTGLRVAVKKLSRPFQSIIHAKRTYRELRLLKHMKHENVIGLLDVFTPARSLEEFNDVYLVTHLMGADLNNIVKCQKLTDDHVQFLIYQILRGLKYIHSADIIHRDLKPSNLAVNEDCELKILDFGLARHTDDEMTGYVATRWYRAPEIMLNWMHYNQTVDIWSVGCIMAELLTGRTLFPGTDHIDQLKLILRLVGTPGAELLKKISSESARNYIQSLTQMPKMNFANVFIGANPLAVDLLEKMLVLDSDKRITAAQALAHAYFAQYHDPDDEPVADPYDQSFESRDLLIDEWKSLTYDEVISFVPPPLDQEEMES

[3] = DRUGMATRIX: ATPase, Na+/K+ enzyme inhibition (substrate: ATP); type: tissue-based, Sus scrofa, Heart; settings: Not Active = under 50% inhibition at 10 µM
Histamine H2 receptor = Histamine H2 receptor (Homo sapiens, UniProt P25021); type: cell membranes, CHO-K1, Membrane; settings: cho-k1; also: in other assays of this panel Not Active means under 50% inhibition at 10 µM
Sequence of Histamine H2 receptor (P25021 whole entry): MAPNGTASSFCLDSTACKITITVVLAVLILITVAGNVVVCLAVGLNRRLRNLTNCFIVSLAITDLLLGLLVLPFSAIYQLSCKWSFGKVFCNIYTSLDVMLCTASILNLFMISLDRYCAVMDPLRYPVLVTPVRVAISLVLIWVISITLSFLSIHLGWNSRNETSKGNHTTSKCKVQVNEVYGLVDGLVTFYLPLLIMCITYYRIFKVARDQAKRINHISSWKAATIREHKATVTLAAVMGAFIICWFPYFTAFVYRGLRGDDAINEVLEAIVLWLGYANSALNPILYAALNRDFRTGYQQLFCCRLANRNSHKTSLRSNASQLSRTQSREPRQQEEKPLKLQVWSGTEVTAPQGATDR

[4] = molecular target: T2, Nitric oxide synthase, inducible (Mus musculus, UniProt P29477); parameters: species or system Escherichia coli;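 also: inhibition of iNOS enzyme activity measured with L-arginine as substrate; in other assays of this panel Not Active means under 50% inhibition at 10 µM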
T2 sequence (P29477 whole entry): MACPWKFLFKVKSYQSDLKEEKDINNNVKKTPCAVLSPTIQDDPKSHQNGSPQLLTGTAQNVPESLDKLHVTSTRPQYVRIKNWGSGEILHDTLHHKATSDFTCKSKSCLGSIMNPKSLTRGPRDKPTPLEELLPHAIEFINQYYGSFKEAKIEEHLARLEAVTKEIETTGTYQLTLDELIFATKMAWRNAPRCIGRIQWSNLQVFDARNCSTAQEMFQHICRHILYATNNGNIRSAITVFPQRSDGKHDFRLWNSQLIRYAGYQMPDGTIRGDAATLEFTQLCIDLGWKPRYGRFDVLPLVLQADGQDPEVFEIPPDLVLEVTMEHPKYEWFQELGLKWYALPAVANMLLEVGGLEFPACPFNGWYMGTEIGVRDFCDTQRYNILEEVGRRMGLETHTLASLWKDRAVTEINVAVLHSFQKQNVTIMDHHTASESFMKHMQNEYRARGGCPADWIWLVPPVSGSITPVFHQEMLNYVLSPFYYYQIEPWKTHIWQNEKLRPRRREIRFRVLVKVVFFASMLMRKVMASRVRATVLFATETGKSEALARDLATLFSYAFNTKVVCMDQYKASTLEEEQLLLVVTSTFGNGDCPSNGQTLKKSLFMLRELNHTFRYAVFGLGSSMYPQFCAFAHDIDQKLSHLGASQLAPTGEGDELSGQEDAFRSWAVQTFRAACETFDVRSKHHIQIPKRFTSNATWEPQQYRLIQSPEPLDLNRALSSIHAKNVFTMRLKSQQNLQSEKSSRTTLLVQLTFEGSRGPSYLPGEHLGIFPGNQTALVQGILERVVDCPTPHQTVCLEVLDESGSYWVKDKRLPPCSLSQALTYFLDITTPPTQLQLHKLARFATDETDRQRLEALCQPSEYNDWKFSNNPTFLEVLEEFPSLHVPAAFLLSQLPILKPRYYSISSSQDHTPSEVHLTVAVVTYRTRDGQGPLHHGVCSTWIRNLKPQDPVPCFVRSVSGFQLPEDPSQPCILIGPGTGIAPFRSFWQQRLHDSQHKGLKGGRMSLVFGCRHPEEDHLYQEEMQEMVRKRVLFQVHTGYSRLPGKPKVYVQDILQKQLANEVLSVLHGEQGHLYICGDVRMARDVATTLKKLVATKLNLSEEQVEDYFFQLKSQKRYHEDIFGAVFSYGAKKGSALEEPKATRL

[5] = molecular target: T3, Receptor-type tyrosine-protein phosphatase C (Homo sapiens, UniProt P08575); parameters: species or system Escherichia coli
T3 sequence (P08575 whole entry): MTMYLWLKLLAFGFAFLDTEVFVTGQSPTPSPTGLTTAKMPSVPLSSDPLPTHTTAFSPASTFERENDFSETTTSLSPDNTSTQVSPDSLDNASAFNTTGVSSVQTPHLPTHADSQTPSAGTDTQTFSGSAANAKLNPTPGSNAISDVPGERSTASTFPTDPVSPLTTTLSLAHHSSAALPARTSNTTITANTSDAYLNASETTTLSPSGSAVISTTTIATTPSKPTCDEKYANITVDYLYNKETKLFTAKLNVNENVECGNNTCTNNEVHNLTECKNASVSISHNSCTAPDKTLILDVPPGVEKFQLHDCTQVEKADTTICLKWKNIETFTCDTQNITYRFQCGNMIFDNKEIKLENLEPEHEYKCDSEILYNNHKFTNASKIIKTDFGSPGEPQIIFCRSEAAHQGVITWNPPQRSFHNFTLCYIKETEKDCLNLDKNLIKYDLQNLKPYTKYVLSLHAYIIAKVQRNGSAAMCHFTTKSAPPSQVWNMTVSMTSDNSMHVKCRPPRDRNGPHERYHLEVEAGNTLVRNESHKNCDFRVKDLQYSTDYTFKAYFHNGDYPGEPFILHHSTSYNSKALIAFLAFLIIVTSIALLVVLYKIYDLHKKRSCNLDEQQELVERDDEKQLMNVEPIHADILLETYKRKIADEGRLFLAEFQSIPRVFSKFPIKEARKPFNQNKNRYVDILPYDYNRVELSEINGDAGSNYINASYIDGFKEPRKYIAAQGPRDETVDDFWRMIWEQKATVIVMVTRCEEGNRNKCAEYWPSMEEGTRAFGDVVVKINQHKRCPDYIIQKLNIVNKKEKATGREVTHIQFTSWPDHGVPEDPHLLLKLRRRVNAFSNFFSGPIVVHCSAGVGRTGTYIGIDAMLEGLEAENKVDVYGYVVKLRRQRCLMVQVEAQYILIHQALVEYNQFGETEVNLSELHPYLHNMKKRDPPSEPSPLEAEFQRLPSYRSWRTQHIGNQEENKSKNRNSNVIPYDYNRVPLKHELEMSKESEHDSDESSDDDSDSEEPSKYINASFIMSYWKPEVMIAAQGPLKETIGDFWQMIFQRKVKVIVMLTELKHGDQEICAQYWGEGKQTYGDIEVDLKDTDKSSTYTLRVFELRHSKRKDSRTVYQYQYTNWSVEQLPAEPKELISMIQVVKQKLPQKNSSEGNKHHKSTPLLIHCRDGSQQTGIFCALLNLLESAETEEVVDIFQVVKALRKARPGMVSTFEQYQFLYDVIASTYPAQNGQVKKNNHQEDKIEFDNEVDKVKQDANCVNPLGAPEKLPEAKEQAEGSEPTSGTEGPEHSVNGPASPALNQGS

C1CCN2C[C@@H]3C[C@@H](CN4CCCC[C@@H]34)[C@H]2C1 [SPARTEINE]
Not Active: IC50 [1] | IC50 [2] | IC50 [3] | Ki [3] | IC50 (Histamine H2 receptor) | IC50 [4] | IC50 [5]

CO[C@@H]1[C@@H](OC)[C@H](C)[C@@](O)(CC(=O)O)O[C@H]1[C@H](C)[C@H]1O[C@@]2(CC[C@@](C)([C@H]3CC[C@@](C)([C@@H]4O[C@@H]([C@H]5O[C@](C)(O)[C@H](C)C[C@@H]5C)C[C@@H]4O[C@@H]4C[C@H](OC)[C@@H](OC)[C@H](C)O4)O3)O2)C[C@H](O)[C@H]1C.N [MADURAMICIN]
Not Active: IC50 [1] | IC50 [2] | IC50 [3] | Ki [3] | IC50 (Histamine H2 receptor) | IC50 [4] | IC50 [5]

CN1C(=O)OC(C)(C)C1=O [TRIMETHADIONE]
Not Active: IC50 [1] | IC50 [2] | IC50 [3] | Ki [3] | IC50 (Histamine H2 receptor) | IC50 [4] | IC50 [5]

CC1(C)[C@H](C(=O)O)N2C(=O)C[C@H]2S1(=O)=O [SULBACTAM]
Not Active: IC50 [1] | IC50 [2] | IC50 [3] | Ki [3] | IC50 (Histamine H2 receptor) | IC50 [4] | IC50 [5]
